These results are taken from article PMC9401491, “The Novel Nucleoside Analogue ProTide NUC-7738 Overcomes Cancer Resistance Mechanisms In Vitro and in a First-In-Human Phase I Clinical Trial” (Clinical Cancer Research, 2021).

Details of data set [1]: method as in earlier work. The note with it: patients, particularly immunotherapy-resistant melanoma; cited from earlier work.
For data set [2], the system named is ACHN. Description: MTT cell viability, ACHN. The format is cell-based. The note with it: Homo sapiens, 48 h. As to the method: (§1) Cells (10^4) were seeded into 96-well plates and then treated with NUC-7738 (lot 5132/E00393/119) or 3′-dA (cordycepin, catalog no. C3394, lot 067M4182, Sigma) for 48 hours. One and a half milligrams per milliliter MTT (catalog no. M6494, Invitrogen) in a 1:1 ratio was added to cell culture media. After a 2-hour incubation at 37°C, media was removed and 70 μl of isopropanol was added. Optical densities at 570 nm were measured using POLARstar Omega plate reader. Readouts were normalized and IC50 values were calculated using a nonlinear regression model in Graphpad prism (v8.3.0). Each biological replicate (at least 3) was performed in 4 technical replicates to calculate the average IC50 value. To measure apoptosis, the Guava NexinReagent (Luminex Corp.) was used following manufacturer's instructions. Fluorescence staining was measured with an automated 96-well Guava easyCyte Flow Cytometer (Luminex Corp.).

Data set [3] relates to NF-κB. The data set is described as follows: NF-κB SEAP reporter and p65 fractionation in THP-1 cells. Format: cell-based. As for the experimental part:
Cells were harvested and lyzed using RIPA lysis and extraction buffer (Thermo Scientific) following manufacturer's protocol. Twenty to 30 μg of total protein lysates was loaded on Mini-PROTEAN TGX precast gels (Bio-Rad). Separated proteins were transferred to a polyvinylidene difluoride (PVDF) membrane using Trans-Blot Turbo Transfer System (Bio-Rad) followed by incubation with primary and horseradish peroxidase (HRP)–conjugated secondary antibodies [anti-mouse, catalog no. 7076S, Cell Signaling Technology (CST) or anti-rabbit, catalog no. 7074S, CST] and ECL Prime Western blotting (GE Healthcare) detection. For fractionation, cells were grown in 10-cm tissue culture plates and treated with 30 or 60 μmol/L of 3′-dA or NUC-7738 for 6 hours. Cells were grown in 10-cm tissue culture plates and fractionated using the Nuclear Extraction Kit (Abcam) following manufacturer's instructions. Twenty-five micrograms of each fraction was used for Western blot (WB) detection. NF-κB p65 antibody (catalog no. 8242, CST), nuclear marker Lamin B1 (catalog no. ab16048, Abcam), cytosolic GAPDH (catalog no. 97166, CST), cleaved PARP (catalog no. 9541, CST), and Actin (MAB1501, Merck) were used.
Figure 5. […] C, NF-κB activity was measured using the SEAP reporter gene assay in THP-1 cells. […] SEAP production as result of NF-κB activity was measured using the QuantiBlue colorimetric enzyme assay. […]

The subject of data set [4] is 786-O. Description: IC50 in renal cancer cell line 786-O. The settings on record: Homo sapiens, 786-0. Format: cell-based.
On the set-up of data set [5]: method as in PMID 22833171, PMID 24419340. The note with it: human serum; cited from earlier work.
In data set [6] the test system is UM-RC-2. The data set is described as follows: IC50 in renal cancer cell line UM-RC-2. The settings on record: UMRC2. Format: cell-based.
Data set [7] is described as follows: Beagle dog 4-week toxicology and toxicokinetics.
The subject of data set [8] is UO-31. Description: MTT cell viability, UO-31. Format: cell-based. The settings on record: Homo sapiens, UO-31, 48 h. As for the experimental part: as §1
Data set [9] has as its system Gastric or cervical cancer cells. The data set is described as follows: Apoptosis by cleaved PARP Western blot. The format is cell-based. The settings on record: 50 and 100 μmol/L, 24 hours. As for the experimental part: as §1
Cells were harvested and lyzed using RIPA lysis and extraction buffer (Thermo Scientific) following manufacturer's protocol. Twenty to 30 μg of total protein lysates was loaded on Mini-PROTEAN TGX precast gels (Bio-Rad). Separated proteins were transferred to a polyvinylidene difluoride (PVDF) membrane using Trans-Blot Turbo Transfer System (Bio-Rad) followed by incubation with primary and horseradish peroxidase (HRP)–conjugated secondary antibodies [anti-mouse, catalog no. […]

The subject of data set [10] is cancer cell lines. Description: IC50 across a wide set of cancer cell lines. The format is cell-based. As to the method: as §1
Data set [11] concerns HAP1 cells. Description: MTT cell viability, HAP1 cells. The settings on record: Homo sapiens. The format is cell-based. As to the method: as §1
The test system of data set [12] is renal cancer cell lines. The data set is described as follows: siRNA HINT1 knockdown in renal cancer cell lines. Format: cell-based. As for the experimental part:
Cells were transfected with stealth siRNA (catalog no. HSS104782, catalog no. HSS104784, catalog no. HSS179235; ThermoFisher) targeting HINT-1 using Lipofectamine RNAiMAX (Invitrogen) following the manufacturer's protocol. At 48 hours posttransfection, cells were treated and cell viability was measured 96 hours posttransfection as described above. Samples for Western blot analysis were harvested 48 hours posttransfection. For gene-depletion experiments, approximately 4 × 10^5 HAP1 cells were seeded per well in a 6-well plate and grown to approximately 50% confluency. After 24 hours, cells were transfected with lentiCRISPR v2 plasmid (GenScript) containing a guide RNA (gRNA) targeting gene of interest using Turbofectin (catalog no. TF81001, OriGene) according to manufacturer's instruction. The following sequences were used: HINT-1 CRISPR gRNA 2 ([…]) and NUDT2 CRISPR gRNA 2 ([…]). At 24 hours posttransfection, positively transfected cells were selected using […] puromycin for 72 hours. After selection, surviving colonies were expanded and used for downstream analysis. For clonal selection, clones were selected using limited dilution and expanded into a 6-well plate for Western blot screening.

Read-outs that look alike come from different tables or passages of the source.

As for `C[C@H](NP(=O)(OC[C@@H]1C[C@@H](O)[C@H](n2cnc3c(N)ncnc32)O1)Oc1ccccc1)C(=O)OCc1ccccc1` (stereo partly drawn) [NUC-7738, 3′-deoxyadenosine-5′-O-phenyl-(benzyloxy-L-alaninyl)-phosphate], in data set [1], the antitumor activity result was “Encouraging signals of antitumor activity and prolonged disease stabilization”. The IC50 in data set [2] is 54.7 µM; in [4], 13 µM; in data set [6] it was 4 µM; in [8] it was 42.2 µM; in data set [10] (read-out: IC50 in the low μM range), below 10 µM; in data set [10] (read-out: mean IC50), 18.8 µM. The IC50 was determined as 7.32 µM in data set [11] (HAP1, 48 h) and 7.6 µM in [11] (HAP1, read-out: IC50 concentration used for RNA-seq). Moreover, the “nuclear translocation of NF-κB” value in data set [3] (NF-κB THP1 reporter cell line, LPS, fractionation and Western blot) is “a reduction in the nuclear translocation of NF-κB”. For the same compound, in data set [3] (THP-1 SEAP reporter, LPS induced), the NF-κB activation entry is “significantly reduced NF-κB activation”. Besides, the half-life in serum in data set [5] was 424 min. In data set [7] (10 mg/kg/day, sex mean at day 26), the “mean AUC(0-t)” value turned out to be 638 ng/h/mL. Besides, the toxicology findings result in data set [7] (20 mg/kg/day, iv slow injection, 4 cycles) was “induced changes in the liver and bone marrow”. Besides, in data set [7] (all doses, significance >2-fold change), the “systemic exposure (mean Cmax and AUC 0-t), single vs repeated administrations” value is recorded as “No significant differences”. Moreover, in data set [7] (both, beagle, plasma, iv), the Tmax (in general, the time from dosing to the highest level) amounted to 15 min. The clearance (as a rule, the rate of elimination divided by the concentration) in data set [7] (both, beagle, plasma, iv) lay within 245 to 533 mL/min/kg. Further, the half-life – broadly, the time needed for the level to fall by half in the phase considered – in data set [7] (both, beagle, plasma, iv) was in the range of 13.2 to 27.6 min. Besides, in [7] (both, beagle, plasma, iv, 10 mg/kg/day), the Cmax (commonly the highest concentration seen after dosing) amounted to 1560 ng/mL. Besides, the “highest nonseverely toxic dose (HNSTD)” value in data set [7] (iv, 4 cycles (4 weeks)) worked out at 10 mg/kg/day. The “apoptotic cell death, cleaved PARP-1” value in [9] is on record as “induced apoptotic cell death”. Moreover, the IC90 in [11] (HAP1, 48 h) came out at 54.2 µM; in data set [11] (HAP1, read-out: IC90 concentration used for RNA-seq) it was 125 µM. Besides, in [12], the “sensitivity after HINT1 depletion to minimal residual levels” value was “no difference in sensitivity”.
